Among the test systems are NCI-H460; 786-0; SK-MEL-2; HCT-116; KM12; HOP-92; M14; MDA-N; MDA-MB-231; EKVX; OVCAR-4; K562; HT-29; SK-MEL-5; TK-10; IGROV-1; SN12C; U-251; HOP-62; HL-60.
Experiment in all cases: DTP human tumour cell line panel, 48 h

The results in this text go back to ChEMBL document CHEMBL1201862, “PubChem BioAssay data set” (2004).

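Values below derive from 48-hour exposures of cells grown in 96-well plates, with endpoints linearly interpolated between the two concentrations bracketing the appropriate inhibition level. Abbreviation: GI50, concentration required for 50% inhibition of growth.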 Active and inactive are the calls of the source. Cut-off read from the data, not from the text of the source: active = GI50 up to about 1.1 µM and inactive = higher.

Take `CCN(CC)CCO/N=C1\CC[C@H]2[C@@H]3CCc4cc(OC)ccc4[C@H]3CC[C@]12C`: the GI50 with NCI-H460 was 0.804 µM (active); with 786-0, 1.59 µM (inactive); with SK-MEL-2 it was 2.3 µM (inactive); in the assay on HCT-116, 1.44 µM (inactive); in the assay with KM12 it was 2.01 µM (inactive); in the assay on HOP-92 it was 2.45 µM (inactive). The GI50 with M14 was 0.467 µM (active); in the assay on MDA-N, 1.75 µM (inactive); in the assay with MDA-MB-231, 3.37 µM (inactive); with EKVX, 3.16 µM (inactive); with OVCAR-4, 9.08 µM (inactive); with K562, 0.685 µM (active). The GI50 with HT-29 was 0.53 µM (active); in the assay with SK-MEL-5, 1.73 µM (inactive); in the assay on TK-10 it was 6.44 µM (inactive); in the assay with IGROV-1, 3.26 µM (inactive); in the assay on SN12C it was 3.03 µM (inactive); in the assay on U-251, 2.59 µM (inactive). Besides, the results for the GI50 in the assay with HOP-62 and with HL-60 were 1.77 µM (inactive) and 0.885 µM (active), respectively.
Take `COc1c2c(cc3c1C(O)N1CC[C@]34[C@H]3O[C@H]3[C@H](OC)C[C@@H]14)OCO2` (stereo not given in full): the GI50 was 72.3 µM (inactive) in the assay on NCI-H460; > 100 µM (inactive) in the assay with 786-0; 26.4 µM (inactive) in the assay on SK-MEL-2; 75 µM (inactive) in the assay with HCT-116; 73.1 µM (inactive) with KM12; > 100 µM (inactive) in the assay with HOP-92. For the same compound, the GI50 is 85.3 µM (inactive) with M14; 25.3 µM (inactive) in the assay with MDA-N; > 100 µM (inactive) with MDA-MB-231; > 100 µM (inactive) in the assay on EKVX; > 100 µM (inactive) in the assay on OVCAR-4; 48 µM (inactive) with K562. In addition, the GI50 in the assay with HT-29 was 42.8 µM (inactive); with SK-MEL-5, 64.6 µM (inactive); with TK-10 it was > 100 µM (inactive); in the assay with IGROV-1, 64.9 µM (inactive); in the assay with SN12C it was > 100 µM (inactive); in the assay on U-251, > 100 µM (inactive). Moreover, the GI50 was 35.8 µM (inactive) in the assay on HOP-62 and 1.18 µM (inactive) with HL-60.
On to `O=C1C(Nc2ccccc2)=CC2=NCCc3n[nH]c1c32`, for which the GI50 was 35.9 µM (inactive) in the assay on NCI-H460; 38.5 µM (inactive) in the assay on 786-0; 61.7 µM (inactive) with SK-MEL-2; 18 µM (inactive) in the assay with HCT-116; 20.4 µM (inactive) in the assay on KM12; 45.8 µM (inactive) in the assay on HOP-92. The GI50 is 46.8 µM (inactive) in the assay on M14; 16.3 µM (inactive) in the assay on MDA-N; 34.8 µM (inactive) in the assay on MDA-MB-231; 41.1 µM (inactive) in the assay on EKVX; 27.2 µM (inactive) in the assay with OVCAR-4; 38.5 µM (inactive) with K562. Moreover, the GI50 in the assay with HT-29 was 37 µM (inactive); in the assay with SK-MEL-5, 18.5 µM (inactive); in the assay on TK-10, > 100 µM (inactive); in the assay on IGROV-1 it was 37.8 µM (inactive); in the assay with SN12C it was 34.8 µM (inactive); in the assay on U-251 it was 37.4 µM (inactive). For the same compound, the GI50 in the assay on HOP-62 was 91.2 µM (inactive); with HL-60 it was 21.1 µM (inactive).

A word on the GI50: it is the concentration that inhibits growth by half.
